Results on 3 molecules are retold here after EPA's ToxRefDB 2.

The test system of series [1] is mouse. To be noted: Combined chronic toxicity/carcinogenicity; b6c3f1; Oral; Feed; dose end: 103 week; group: systemic; systemic / in life observation / body weight / body weight.
Series [2] has as its system rat. To be noted: Combined chronic toxicity/carcinogenicity, fischer, Oral, Feed, dose end: 103 week, group: systemic.
Series [3] deals with rat. To be noted: Subchronic dermal toxicity, Topical, dose end: 68 day, group: systemic.
Series [4] has as its system rat. To be noted: Subchronic dermal toxicity, sprague dawley, Topical, dose end: 90 day, group: systemic, systemic / pathology microscopic / skin / acanthosis + systemic / pathology microscopic / skin / edema + systemic / pathology microscopic / ….
For series [5], the system named is rat. Conditions: Sub-acute dermal toxicity, sprague dawley, Topical, dose end: 2 week, group: systemic.
In series [6] the test system is rabbit. Conditions: Sub-acute repeat dose toxicity, new zealand white, Oral, Gavage/Intubation, dose end: 13 day.
The subject of series [7] is rabbit. To be noted: Prenatal developmental toxicity study, new zealand white, Oral, Gavage/Intubation, dose end: 19 GD, group: maternal.
Series [8] relates to rat. Conditions: Prenatal developmental toxicity study, sprague dawley, Oral, Gavage/Intubation, dose end: 18 GD.
In series [9] the test system is rat. To be noted: Fertility (Segment I), Oral, Gavage/Intubation, dose end: 1 generation.
The subject of series [10] is rat. Conditions: Fertility (Segment I), Oral, Gavage/Intubation, dose end: 1 generation, group: parental.
For series [11], the system named is rabbit. Conditions: Sub-acute repeat dose toxicity, new zealand white, Oral, Gavage/Intubation, dose end: 13 day, group: systemic.
Setting [12] is: systemic / pathology microscopic / pancreas / adenoma/carcinoma combined.
[13] abbreviates: systemic / in life observation / clinical signs / [other] + systemic / pathology gross / skin / thickened + systemic / pathology gross / ….
Where [14] appears, read: systemic / in life observation / clinical signs / erythema.
Setting [15] is: systemic / in life observation / clinical signs / erythema + systemic / in life observation / clinical signs / general pallor + systemic / ….
The mark [16] stands for this setting: group: maternal, reproductive / reproductive performance / aborted / aborted.
Where [17] appears, read: group: systemic, systemic / in life observation / body weight / body weight + systemic / in life observation / clinical signs / abnormal feces + systemic / ….
Setting [18] is: group: systemic, systemic / in life observation / clinical signs / abnormal feces.
[19] abbreviates: reproductive / reproductive performance / aborted / aborted + systemic / in life observation / body weight / body weight gain + systemic / ….
Setting [20] is: systemic / in life observation / clinical signs / abnormal feces.
Where [21] appears, read: group: developmental, developmental / developmental malformation / bone / delayed ossification + developmental / developmental malformation / kidney / dilated ….
The mark [22] stands for this setting: group: maternal, systemic / in life observation / body weight / body weight + systemic / in life observation / clinical signs / salivation + systemic / in ….
The mark [23] stands for this setting: group: maternal, reproductive / reproductive performance / estrous cycle / length.
The mark [24] stands for this setting: group: parental, systemic / in life observation / body weight / body weight gain + systemic / in life observation / clinical signs / salivation + systemic / ….
The mark [25] stands for this setting: systemic / in life observation / body weight / body weight gain + systemic / in life observation / clinical signs / salivation.
The mark [26] stands for this setting: systemic / in life observation / clinical signs / tarry stools.
Setting [27] is: systemic / in life observation / clinical signs / tarry stools + systemic / in life observation / body weight / body weight + systemic / in ….

The term LOAEL denotes the lowest dose or exposure tested at which an adverse effect was seen. In general, NOAEL refers to the highest dose or exposure tested at which no adverse effect was seen.

Regarding `CN(C)[C@@H]1C(=O)C(C(N)=O)=C(O)[C@@]2(O)C(=O)C3=C(O)c4c(O)cccc4[C@@](C)(O)[C@H]3C[C@@H]12.Cl` [Tetracycline hydrochloride], in [1], the LEL came out at 1500 mg/kg/day, the LOAEL turned out to be 1500 mg/kg/day, the NEL is below 1500 mg/kg/day and the NOAEL is below 1500 mg/kg/day. In addition, the LOAEL in series [2] (systemic / pathology microscopic / liver / clear cell focus + systemic / pathology microscopic / liver / cytoplasmic alteration) is 910 mg/kg/day. Also, the NOAEL in series [2] (systemic / pathology microscopic / liver / clear cell focus + systemic / pathology microscopic / liver / cytoplasmic alteration + systemic…) amounted to 440 mg/kg/day. In series [2] (setting [12]), the LEL was found to be 440 mg/kg/day and the NEL was below 440 mg/kg/day.

For the molecule `CC1(C)COCN1` [4,4-Dimethyloxazolidine], the LEL in series [3] (systemic / in life observation / clinical signs / [other]) is 19.5 mg/kg/day; in series [4], 30 mg/kg/day; in series [5] (setting [14]), 10 mg/kg/day. In addition, the LOAEL in series [3] (setting [13]) was 195 mg/kg/day; in series [4], 30 mg/kg/day; in series [5] (setting [14]), 10 mg/kg/day. The NEL in series [3] (setting [13]) was found to be 1.95 mg/kg/day; in series [4] it was 1 mg/kg/day; in series [5] (setting [15]), 1 mg/kg/day. Besides, the NOAEL in series [3] (setting [13]) came out at 19.5 mg/kg/day; in series [4], 1 mg/kg/day; in series [5] (setting [15]) it was 1 mg/kg/day.

On to `CCOc1cccc(C2(N3CCN(c4ccccc4)CC3)CCC(C)CC2)c1.CS(=O)(=O)O` (stereo not given), for which the LEL came out at 300 mg/kg/day in series [6] (setting [16]); 100 mg/kg/day in series [6] (setting [18]); 15 mg/kg/day in [7] (setting [20]); 60 mg/kg/day in series [8] (setting [21]); 60 mg/kg/day in series [8] (setting [22]); 10 mg/kg/day in [9] (setting [23]). Besides, the results for the LEL in series [9] (setting [24]), in series [10] (systemic / in life observation / clinical signs / salivation) and in [11] (setting [26]) were 30 mg/kg/day, 30 mg/kg/day and 100 mg/kg/day, respectively. Further, the LOAEL in series [6] (setting [16]) was above 500 mg/kg/day; in series [6] (setting [17]), above 500 mg/kg/day; in [7] (setting [19]), above 300 mg/kg/day; in series [8] (setting [21]) it was above 125 mg/kg/day; in [8] (setting [22]), above 125 mg/kg/day; in series [9] (setting [23]) it was above 100 mg/kg/day. Further, the LOAEL in series [9] (setting [24]) was above 100 mg/kg/day; in series [10] (setting [25]), above 100 mg/kg/day; in [11] (setting [27]), above 1000 mg/kg/day. Moreover, the NEL in series [6] (setting [16]) is 100 mg/kg/day; in series [6] (setting [18]) it was below 100 mg/kg/day; in series [7] (setting [20]), below 15 mg/kg/day; in [8] (setting [22]), 12 mg/kg/day; in series [9] (setting [23]), below 10 mg/kg/day; in series [9] (setting [24]), 10 mg/kg/day. The results for the NEL in [10] (setting [25]) and in series [11] (setting [26]) were 10 mg/kg/day and below 100 mg/kg/day, respectively. Besides, the NOAEL in series [6] (setting [16]) is at least 500 mg/kg/day; in series [6] (setting [17]) it was at least 500 mg/kg/day; in series [7] (setting [19]), at least 300 mg/kg/day; in [8] (setting [21]), at least 125 mg/kg/day; in [8] (setting [22]), at least 125 mg/kg/day; in [9] (setting [23]), at least 100 mg/kg/day. The figures for the NOAEL in series [9] (setting [24]), in series [10] (setting [25]) and in series [11] (setting [27]) were at least 100 mg/kg/day, at least 100 mg/kg/day and at least 1000 mg/kg/day, respectively.
